Test results reported in patent US20190133980A1, “Compositions and methods for targeting and treating homologous recombination-deficient tumors” (YALE UNIVERSITY, priority 2016, published 2019).

What was measured:
[1] = system: wild-type or IDH1-R132H heterozygous astrocytes; assay: Short-term growth delay assay, astrocytes; type: cell-based, Human; settings: for sensitization of IDH1-mutant versus WT cells to single DNA damaging agent: FIG. 6A, single agents
Method: Cells were plated in 96-well black-walled plates (Costar) at a concentration of 2.5 k/well and allowed to adhere at room temperature for 60 minutes prior to return to the incubator. […] For synergy experiments, cells were replica-plated and drugs added in single wells at the indicated concentrations. At 96 hours after the addition of drugs, cells were washed in PBS, fixed in 70% ethanol, and stained with Hochst at 1 μg/mL. The plates were then imaged on a Cytation 3 automated imager (BioTek), and cells were counted using CellProfiler (cellprofiler.org/). Each experiment was performed three times and values from a representative experiment are reported as mean±SEM. For synergy experiments, experiments were analyzed for synergistic interactions using Combenefit (www.cruk.cam.ac.uk/research-groups/jodrell-group/combenefit).

[2] = system: homologous recombination (HR) in U2OS DR-GFP cells; assay: U2OS DR-GFP chromosomal HR reporter assay; type: cell-based; settings: for suppression of HR: after 10 days of culture in 300 μM octyl-(R)-2-hydroxyglutarate vs DMSO
Method: These reporter assays are carried out as previously described ([…] et al., Molecular cancer research: MCR 13, 1389-1397 (2015)). Briefly, after 10 days of culture in (2R)-Octyl-alpha-hydroxyglutarate (Cayman), 1×10^6 cells were transfected in triplicate with 4 μg pI-SceI using the Amaxa Nucleofector II and Nucleofection Kit V (Lonza) per manufacturer's protocol. 72 h after transfection, cells were analyzed for GFP expression using flow cytometry, and the data was analyzed using FlowJo software to calculate %GFP positive cells. Values reported are mean±SEM.

[3] = system: wild-type and IDH1-R132H heterozygous HCT116 cells; assay: Short-term growth delay assay, HCT116; type: cell-based, Human
Method: Cells were plated in 96-well black-walled plates (Costar) at a concentration of 2.5 k/well and allowed to adhere at room temperature for 60 minutes prior to return to the incubator. For growth delay assays containing octyl-(R)-2HG, cells were cultured with indicated concentration for 10 days prior to plating. 24 hours later, the media was changed and indicated drugs dissolved in either DMSO or DMF (cisplatin only) were added in quadruplicate at varying concentrations. For synergy experiments, cells were replica-plated and drugs added in single wells at the indicated concentrations. At 96 hours after the addition of drugs, cells were washed in PBS, fixed in 70% ethanol, and stained with Hochst at 1 μg/mL. The plates were then imaged on a Cytation 3 automated imager (BioTek), and cells were counted using CellProfiler (cellprofiler.org/). Each experiment was performed three times and values from a representative experiment are reported as mean±SEM. For synergy experiments, experiments were analyzed for synergistic interactions using Combenefit (www.cruk.cam.ac.uk/research-groups/jodrell-group/combenefit).

[4] = system: WT and R132H/+ HCT116 cells; assay: Neutral comet assay, HCT116; type: cell-based, Human
Method: (§1) Neutral comet assays were performed per manufacturer's protocol (Trevigen). Briefly, cells were trypsinized, washed with PBS and suspended in LM Agarose (Trevigen). Neutral electrophosesis was conducted at 21V for 1 hour in the CometAssay Electrophoresis System (Trevigen). Data were collected with an EVOS FL microscope (Advanced Microscopy Group) and analyzed using AutoComet software (TriTek Corporation). For each experiment, three biological replicates each with >50 cells were measured, and reported values are mean±SEM.

[5] = system: IDH1-WT U2OS DR-GFP cells; assay: Neutral comet assay, U2OS; type: cell-based; settings: 24 h exposure to DMOG
Method: as §1

[6] = system: wild-type or IDH1-R132H heterozygous HCT116 cells; assay: Long-term colony forming assay, HCT116; type: cell-based, Human; settings: FIG. 5E; at 10 nM BMN-673
Method: (§2) Cells were counted and diluted in media containing various concentration of drug. They were then immediately seeded in 6-well plates in triplicate at 3-fold dilutions, ranging from 9000 to 37 cells per well. These plates were kept in the incubator for 10 to 14 days, following which they were washed in PBS, stained with Crystal Violet, and quantified. Each experiment was performed twice, and values reported are mean ±standard deviation.

[7] = system: wild-type or IDH1-R132H heterozygous astrocytes; assay: Long-term colony forming (clonogenic survival) assay, astrocytes; type: cell-based, Human; settings: FIG. 2B
Method: as §2

[8] = system: HCT116 IDH1-WT and -mutant tumors; assay: In vivo BMN 673 efficacy study, subcutaneous flank xenografts; set-up: species or system nude mice; settings: BMN-673 0.33 mg/kg oral gavage once daily for 21 days vs vehicle
Method: All animal experiments were performed in compliance with our institution's IACUC committee. Four week-old female athymic nu/nu mice were used for all in vivo xenograft studies. Mice were quarantined for at least 1 week before experimental manipulation. Human HCT116 cells (with and without IDH1 mutation) were implanted subcutaneously (3-5×10^6 cells in 0.1 cc PBS) in the right flank of nude mice. When tumors reached an average volume of approximately 100 mm^3, mice were randomized into various treatment groups (5-7 mice/group) in each study. Animals were not randomized, but were grouped based on tumor size such that tumors were roughly equivalent in size when treatment was begun. The investigator was not blinded throughout the experiment. Mice were visually observed daily and tumors were measured three times per week by calipers to determine tumor volume using the formula: […]
BMN 673 was solubilized in DMSO and diluted with PBS containing 10% dimethylacetamide (Sigma-Aldrich) and 6% Solutol (Sigma-Aldrich). […] Tumor tripling time was calculated as the time required for tumors to increase in volume threefold over baseline at the time of treatment initiation. P-values were determined by Mann-Whitney U test (Stata). Kaplan-Meier curves were generated with survival fraction determined by the number of mice alive with tumor volume smaller than three times the initial pre-treatment volume. […]

COS(C)(=O)=O [MMS, Methyl methanesulfonate]
sensitization of IDH1-mutant versus WT cells to single DNA damaging agent [1]: modest, but detectable sensitization

CCc1c2c(nc3ccc(OC(=O)N4CCC(N5CCCCC5)CC4)cc13)-c1cc3c(c(=O)n1C2)COC(=O)[C@]3(O)CC [irinotecan]
sensitization of IDH1-mutant versus WT cells to single DNA damaging agent [1]: modest, but detectable sensitization

(2R)-octyl-α-hydroxyglutarate [octyl-(R)-2-hydroxyglutarate]
suppression of HR ([2]; FIG. 1I): comparable in magnitude to RAD51 or BRCA2 suppression by siRNA knockdown

O=C(O)CCC(O)C(=O)O (stereo not drawn) [2-HG, 2-hydroxyglutarate]
PARP inhibitor (BMN-673) sensitivity of WT cells after 2-HG treatment ([3]; FIGS. 2C-2D, wild-type HCT116, octyl-(R)-2HG with 300 nM BMN-673, or 900 μM octyl-(R)-2HG with BMN-673 dose response): recapitulate the enhanced PARP inhibitor sensitivity seen in IDH1-mutant cells
ability of treatment alone to reproduce the IDH1-associated HR defect ([2]; FIG. 1I, FIGS. 3H-3I, wild-type cells): recapitulate the IDH1-associated HR defect
suppression of HR ([2]; FIG. 1I): dramatic, and it approached levels seen with siRNAs targeting two key HR genes, RAD51 and BRCA2

O=[N+]([O-])c1cc([N+](=O)[O-])c(/C=C/c2ccc(Cl)c(Cl)c2)cc1/C=C/c1ccc(Cl)c(Cl)c1 [NSC-636819]
doses at which the increase in DSBs was observed ([4]; HCT116 IDH-WT cells): 12.5 to 50 µM
DSBs (comet tail moment) in HCT116 IDH-WT cells ([4]; NSC-636819 treatment, HCT116 IDH-WT): dose-dependent increase in elevated DSBs, which approached the levels seen in untreated HCT116 IDH-mutant cells
comet tail moments in HCT116 IDH-mutant cells ([4]; NSC-636819 treatment, HCT116 IDH-mutant): did not further increase comet tail moments

COC(=O)CNC(=O)C(=O)OC [DMOG, dimethyloxalylglycine]
baseline DSBs [5]: dose dependent increase in baseline DSBs
HR activity ([2]; 24 h pretreatment with DMOG): dose dependent HR suppression

Cn1ncnc1[C@H]1c2n[nH]c(=O)c3cc(F)cc(c23)N[C@@H]1c1ccc(F)cc1 [BMN-673]
difference in cell viability between wild-type and IDH1-R132H heterozygous HCT116 [6]: roughly ten-fold difference in cell viability
increase in sensitivity of IDH1-R132H versus wild-type astrocytes ([7]; at 10 nM BMN-673): ten-fold increase in sensitivity
decrease in cell survival of IDH1-mutant compared to WT cells ([7]; clonogenic survival, dose of 10 nM): 10 fold
difference in IC50 between wild-type and IDH1-R132H heterozygous HCT116 ([3]; FIG. 5D): nearly eight-fold difference in IC50
tumor growth in IDH1-WT tumors ([8]; HCT116 IDH1-WT xenografts): minimal effects
tumor growth in IDH1-mutant tumors ([8]; HCT116 IDH1-mutant xenografts): significant growth delay
decrease in IC50 in R132H mutants versus wild-type ([1]; FIG. 2A, BMN-673 dose response, 96 hours after addition of drug): four-fold decrease in IC50

N.N.[Cl][Pt][Cl] [cisplatin]
synergy between BMN-673 and cisplatin ([1]; FIG. 2F, 8 nM BMN-673 and 1 cisplatin, IDH1 wild-type vs IDH1-R132H astrocytes): IDH1-R132H-dependent synergy
sensitization of IDH1-mutant versus WT cells to single DNA damaging agent [1]: modest, but detectable sensitization
synergistic interaction with BMN-673 in IDH1-mutant tumor cells ([1]; FIGS. 2E-F, 6B (cisplatin, astrocytes), FIG. 6C (TMZ, IDH1-R132H HCT116), Combenefit analysis): dramatic synergistic interaction
